Results reported in ChEMBL document CHEMBL1130803, “Anti-HIV pronucleotides: decomposition pathways and correlation with biological activities” (Bioorg Med Chem Lett, 1998).

What was measured:
CCRF-CEM [1] = assay: Compound was evaluated for cytotoxicity against thymidine kinase deficient CEM cell line infected with HIV-1; assay type: functional; details: Homo sapiens
CCRF-CEM [2] = assay: Compound was evaluated for anti-HIV activity against thymidine kinase deficient CEM cell line infected with HIV-1; assay type: functional, cell-based; details: Homo sapiens
[3] = Half-life at initial concentration of 5*10e-5 M in CEM cell extract; assay type: ADME, CCRF-CEM; details: human

SMILES | EC50 (CCRF-CEM [2]) [µM] | half-life [3] [h] | CC50 (CCRF-CEM [1]) [µM]
Cc1cn([C@H]2C[C@H](N=[N+]=[N-])[C@@H](CO)O2)c(=O)[nH]c1=O [ZIDOVUDINE] | > 100 |  | > 100
COC(=O)CCNP(=O)(OCC1OC(n2cc(C)c(=O)[nH]c2=O)CC1N=[N+]=[N-])Oc1ccccc1 (centres undefined) | > 100 | > 8 | > 100
COC(=O)[C@H](C)NP(=O)(OC[C@H]1O[C@@H](n2cc(C)c(=O)[nH]c2=O)C[C@@H]1N=[N+]=[N-])Oc1ccccc1 (some centres undefined) | 4.1 | 2.5 | 97

Further lines, with some results ahead:

EC50 (CCRF-CEM [2]) [µM] | half-life [3] [h] | SMILES | CC50 (CCRF-CEM [1]) [µM]
> 10 | 1.5 | CC(=O)OCCNP(=O)(OCC1OC(n2cc(C)c(=O)[nH]c2=O)CC1N=[N+]=[N-])Oc1ccccc1 (centres undefined) | > 10
63 | 21 | COC(=O)CNP(=O)(OCC1OC(n2cc(C)c(=O)[nH]c2=O)CC1N=[N+]=[N-])Oc1ccccc1 (centres undefined) | > 100
